# Assay results: patent US5866397A, “Human protein tyrosine phosphatase OB protein” (Merck & Co., Inc., priority 1997, dated 1999)
# Entries after “also recorded” stand apart in the source; their conditions may differ. Read-outs that look alike come from different tables or passages of the source.
# T1: PTP-OB (Homo sapiens, UniProt Q13332)
# T1 construct: we expressed the cytoplasmic domain of PTP-OB and PTPε in bacteria as a GST-fusion protein; made in house; host or cells: bacteria (vector pGEX-2TX, Pharmacia)
# T1 sequence (Q13332 1303-1928 isoform Q13332-3 C1437R/N1685K): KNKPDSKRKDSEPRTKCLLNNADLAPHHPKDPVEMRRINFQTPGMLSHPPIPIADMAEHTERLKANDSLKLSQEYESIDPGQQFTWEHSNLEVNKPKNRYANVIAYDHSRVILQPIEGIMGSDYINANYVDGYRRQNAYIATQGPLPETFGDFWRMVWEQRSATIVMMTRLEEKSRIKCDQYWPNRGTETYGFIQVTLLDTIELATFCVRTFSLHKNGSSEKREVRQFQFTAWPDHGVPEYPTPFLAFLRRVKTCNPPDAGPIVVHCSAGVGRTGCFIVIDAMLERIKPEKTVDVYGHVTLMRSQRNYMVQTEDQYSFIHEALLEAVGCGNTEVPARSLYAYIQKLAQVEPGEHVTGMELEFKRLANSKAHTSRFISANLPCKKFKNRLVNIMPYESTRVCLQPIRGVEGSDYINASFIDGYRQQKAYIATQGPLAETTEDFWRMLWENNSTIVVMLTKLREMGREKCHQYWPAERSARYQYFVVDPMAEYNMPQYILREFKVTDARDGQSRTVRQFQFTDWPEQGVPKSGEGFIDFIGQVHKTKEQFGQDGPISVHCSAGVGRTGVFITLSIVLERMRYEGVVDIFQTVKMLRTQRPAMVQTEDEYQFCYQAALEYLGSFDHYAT
# B1: PTPε (Mus musculus) (protein)
# chain: RFRKQRKAVVSSNDKKMPNGILEEQEQQRVMLLSRSPSGPKKFFPIPVEHLEEEIRVRSADDCKRFREEFNSLPSGHIQGTFELANKEENREKNRYPNILPNDHCRVILSQVDGIPCSDYINASYIDGYKEKNKFIAAQGPKQETVNDFWRMVWEQRSATIVMLTNLKERKEEKCYQYWPDQGCWTYGNIRVCVEDCVVLVDYTIRKFCIHPQLPDSCKAPRLVSQLHFTSWPDFGVPFTPIGMLKFLKKVKTLNPSHAGPIVVHCSAGVGRTGTFIVIDAMMDMIHSEQKVDVFEFVSRIRNQRPQMVQTDVQYTFIYQALLEYYLYGDTELDVSSLERHLQTLHSTATHFDKIGLEEEFRKLTNVRIMKENMRTGNLPANMKKARVIQIIPYDFNRVILSMKRGQEFTDYINASFIDGYRQKDYFMATQGPLAHTVEDFWRMVWEWKSHTIVMLTEVQEREQDKCYQYWPTEGSVTHGDITIEIKSDTLSEAISVRDFLVTFKQPLARQEEQVRMVRQFHFHGWPEVGIPAEGKGMIDLIAAVQKQQQQTGNHPITVHCSAGAGRTGTFIALSNILERVKAEGLLDVFQAVKSLRLQRPHMVQTLEQYEFCYKVVQDFIDIFSDYANFK
# Experiments:
# MB1.8 cells = test: Osteoblast proliferation (thymidine incorporation) in mouse calvaria derived MB1.8 cells; assay type: cell-based; details: micromolar concentrations
# rat osteoclasts = test: cells; assay type: cell-based
# [1] = test system: multinucleated TRAP positive osteoclast-like cells; test: cells; assay type: cell-based, mouse
# PTP-OB = target: T1, PTP-OB; test: PTP enzymatic assay with recombinant GST-PTP-OB fusion protein (FDP substrate); assay type: biochemical; details: pH 5.65, FIG. 8
# [2] = test system: mononucleated TRAP positive cells; assay type: cell-based, mouse
# PTPε = PTPε (Mus musculus, UniProt P49446); test: PTP enzymatic assay with recombinant GST-PTPε fusion protein (FDP substrate)
# [3] = test system: osteoblasts and bone marrow cells
# bone resorption = details: organ cultures; Krieger and Tashjian; cited from earlier work
# bone cells / osteoblasts = details: cited from earlier work
# [4] = substrate: O=C1OC2(c3ccc(OP(=O)(O)O)cc3Oc3cc(OP(=O)(O)O)ccc32)c2ccccc21; test: purified protein, by the assay type; details: other: FDP as substrate of GST-PTPε; pH 5.65
molecule,measurement,setting,value
NCCCC(O)(P(=O)(O)O)P(=O)(O)O [alendronate],thymidine incorporation (mitogenesis) of quiescent osteoblasts,MB1.8 cells,stimulated thymidine incorporation
same,inhibition at 10 µM,"rat osteoclasts; Rattus norvegicus, Osteoclast, 24 h, read-out: reduction of the number of resorption pits",80%
same,inhibition of formation of multinucleated TRAP positive cells,[1],completely inhibited
same,IC50,PTP-OB,200 nM
same,development of mononucleated TRAP positive cells,[2],did not block
CC(O)(P(=O)(O)O)P(=O)(O)O [etidronate],thymidine incorporation (mitogenesis) of quiescent osteoblasts,MB1.8 cells,stimulated thymidine incorporation
same,IC50,PTPε,~400 nM
COC1=C2C[C@@H](C)C[C@H](OC)[C@H](O)[C@@H](C)/C=C(\C)[C@H](OC(N)=O)[C@@H](OC)/C=C\C=C(/C)C(=O)NC(=CC1=O)C2=O [geldanamycin],inhibition of formation of multinucleated TRAP positive cells,[1],complete inhibition
same,"inhibition of osteoclast formation, in words",[1],potent inhibitor
same,IC50,"[1]; Mus musculus, Osteoclast-like, read-out: IC50, osteoclast formation",0.05 µg/mL
same,appearance/development of mononuclear TRAP positive cells,[2],completely blocked; also recorded: inhibited the development of mononuclear TRAP positive cells
[O]=[V]([O-])([O-])[O-] [orthovanadate],thymidine incorporation (mitogenesis) of quiescent osteoblasts,MB1.8 cells,stimulated thymidine incorporation
same,"inhibition of bone resorption, in words",rat osteoclasts,potent inhibitors
same,reduction of the number of resorption pits,"rat osteoclasts; osteoclasts on bone slices, 1440 min, 10 µM",80%
same,IC50,"rat osteoclasts; read-out: IC50, bone resorption",2000 nM
same,additional effect when added at earlier days of co-culture,[1],small additional effect
same,inhibition of formation of multinucleated TRAP positive cells,[1],completely inhibited
same,"inhibition of formation of multinucleated TRAP positive cells, in words",[1],completely inhibited
same,inhibition of formation of multinucleated osteoclastic cells when added at any time up to day six,[1],≥ 90%
same,"inhibition of formation of the fused TRAP positive cells, in words",[1],markedly inhibited
same,block of formation of multinucleated TRAP positive cells when added at day six of co-culture,"[1]; bone marrow/osteoblast co-culture, 1440 min",80%
same,IC50,"[1]; read-out: IC50, formation of multinucleated TRAP positive cells",2000 nM
same,development of mononucleated TRAP positive cells,[2],did not block
same,formation of mononucleated TRAP positive cells,[2],produced mononucleated TRAP positive cells
same,effects on the co-cultured osteoblasts,[3],no ill effects
same,toxicity for osteoblasts or bone marrow cells,[3],no apparent toxicity
same,stimulation of bone resorption induced by PTH,bone resorption,inhibited
same,bone cell / osteoblast proliferation,bone cells / osteoblasts,can stimulate osteoblast proliferation; also recorded: stimulated cell proliferation; also recorded: stimulation of cell proliferation
B1,Km,[4],70 µM
